Source: PubChem BioAssay (NCI)
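Cultured in 96-well plates, cells were exposed to test compound for 48 hours across five concentrations. The concentration for 50% growth inhibition is given as GI50. Definition used: TGI = concentration required for complete inhibition of growth.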

Assays:
Assay in all cases: inhibition of tumour cell growth, NCI panel, 48 h
[1] = test system: NCI-H23 lung
[2] = test system: 786-0 renal
[3] = test system: MOLT-4 leukemia
[4] = test system: SNB-75 CNS
[5] = test system: SK-MEL-2 melanoma
[6] = test system: MDA-MB-435
[7] = test system: RXF 393 renal
[8] = test system: A498 renal
[9] = test system: SF-295 CNS
[10] = test system: MDA-MB-231 breast
[11] = test system: SF-539 CNS
[12] = test system: A549 NSCLC
[13] = test system: CCRF-CEM leukemia
[14] = test system: IGROV1 ovarian
[15] = test system: HOP-92 NSCLC
[16] = test system: U251 CNS
[17] = test system: SF-268 CNS
[18] = test system: OVCAR-8 ovarian
[19] = test system: SNB-19 CNS
[20] = test system: OVCAR-3 ovarian
[21] = test system: COLO 205 colon
[22] = test system: HL-60(TB) leukemia
[23] = test system: MCF7 breast
[24] = test system: ACHN renal
[25] = test system: NCI-H522 lung
[26] = test system: CAKI-1 renal
[27] = test system: NCI-H226 lung
[28] = test system: MDA-MB-468 breast
[29] = test system: SK-MEL-5 melanoma
[30] = test system: HOP-62 NSCLC
[31] = test system: LOX IMVI melanoma
[32] = test system: HCC-2998 colon
[33] = test system: SW-620 colon
[34] = test system: MALME-3M melanoma
[35] = test system: OVCAR-4 ovarian
[36] = test system: HT29 colon
[37] = test system: NCI-H460 lung
[38] = test system: SK-MEL-28 melanoma
[39] = test system: UACC-257 melanoma
[40] = test system: KM12 colon
[41] = test system: HCT-116 colon
[42] = test system: NCI/ADR-RES ovarian
[43] = test system: EKVX NSCLC
[44] = test system: UO-31 renal
[45] = test system: TK-10 renal
[46] = test system: K-562 leukemia
[47] = test system: PC-3 prostate
[48] = test system: HCT-15 colon
[49] = test system: DU-145 prostate
[50] = test system: T-47D breast
[51] = test system: HS 578T breast
[52] = test system: UACC-62 melanoma
[53] = test system: SN12C renal
[54] = test system: BT-549 breast
[55] = test system: M14 melanoma
[56] = test system: OVCAR-5 ovarian
[57] = test system: SK-OV-3 ovarian
[58] = test system: RPMI-8226 leukemia

With `COC(=O)C[C@](O)(CCCC(C)(C)O)C(=O)O[C@H]1C(OC)=C[C@@]23CCCN2CCc2cc4c(cc2[C@@H]13)OCO4` the GI50 [1] was 996 nM, the TGI [1] was 3310 nM and the GI50 [2] was 1450 nM. For the same molecule, the TGI [2] was 9560 nM, the GI50 [3] was 255 nM and the TGI [3] was 2290 nM. It also gave a GI50 [4] of 982 nM, a TGI [4] of 8370 nM and a GI50 [5] of 3230 nM. It also gave a TGI [5] of 12800 nM, a GI50 [6] of 1250 nM and a TGI [6] of 6780 nM. The GI50 [7] was 447 nM, the TGI [7] was 1470 nM and the GI50 [8] was 665 nM. It also gave a TGI [8] of 3660 nM, a GI50 [9] of 1340 nM and a TGI [9] of 11800 nM. The GI50 [10] was 2240 nM, the TGI [10] was 12800 nM and the GI50 [11] was 673 nM. For the same molecule, the TGI [11] was 1780 nM, the GI50 [12] was 999 nM and the TGI [12] was 8720 nM. It also gave a GI50 [13] of 856 nM, a TGI [13] of 3020 nM and a GI50 [14] of 1320 nM. It also gave a TGI [14] of 11400 nM, a GI50 [15] of 1150 nM and a TGI [15] of 11700 nM. The GI50 [16] was 1000 nM, the TGI [16] was 4810 nM and the GI50 [17] was 2900 nM. For the same molecule, the TGI [17] was 19500 nM, the GI50 [18] was 1420 nM and the TGI [18] was 11900 nM. For the same molecule, the GI50 [19] was 757 nM, the TGI [19] was 3060 nM and the GI50 [20] was 1010 nM. It also gave a TGI [20] of 4140 nM, a GI50 [21] of 1700 nM and a TGI [21] of 6870 nM. For the same molecule, the GI50 [22] was 456 nM, the TGI [22] was 1740 nM and the GI50 [23] was 524 nM. The TGI [23] was 2110 nM, the GI50 [24] was 1770 nM and the TGI [24] was 16200 nM. The GI50 [25] was 858 nM, the TGI [25] was 2320 nM and the GI50 [26] was 3000 nM. For the same molecule, the TGI [26] was 29700 nM, the GI50 [27] was 781 nM and the TGI [27] was 3560 nM. For the same molecule, the GI50 [28] was 613 nM, the TGI [28] was 2080 nM and the GI50 [29] was 614 nM. For the same molecule, the TGI [29] was 1470 nM, the GI50 [30] was 1500 nM and the TGI [30] was 16200 nM. The GI50 [31] was 481 nM, the TGI [31] was 1560 nM and the GI50 [32] was 545 nM. It also gave a TGI [32] of 1590 nM, a GI50 [33] of 1150 nM and a TGI [33] of over 38300 nM. For the same molecule, the GI50 [34] was 691 nM, the TGI [34] was 2110 nM and the GI50 [35] was 1220 nM. The TGI [35] was 10300 nM, the GI50 [36] was 953 nM and the TGI [36] was 6450 nM. The GI50 [37] was 210 nM, the TGI [37] was 2620 nM and the GI50 [38] was 992 nM. The TGI [38] was 4260 nM, the GI50 [39] was 1220 nM and the TGI [39] was 8480 nM. For the same molecule, the GI50 [40] was 1280 nM, the TGI [40] was 17500 nM and the GI50 [41] was 717 nM. It also gave a TGI [41] of 3010 nM, a GI50 [42] of over 38300 nM and a TGI [42] of over 38300 nM. The GI50 [43] was 1670 nM, the TGI [43] was 16800 nM and the GI50 [44] was 4550 nM. It also gave a TGI [44] of 29800 nM, a GI50 [45] of 3030 nM and a TGI [45] of 35700 nM. For the same molecule, the GI50 [46] was 972 nM, the TGI [46] was over 38300 nM and the GI50 [47] was 1140 nM. For the same molecule, the TGI [47] was 9360 nM, the GI50 [48] was 4650 nM and the TGI [48] was 21700 nM. It also gave a GI50 [49] of 1120 nM, a TGI [49] of 13400 nM and a GI50 [50] of 1200 nM. It also gave a TGI [50] of 18500 nM, a TGI [51] of 9750 nM and a GI50 [52] of 1410 nM. It also gave a TGI [52] of 10600 nM, a GI50 [53] of 1610 nM and a TGI [53] of 19600 nM. For the same molecule, the GI50 [54] was 823 nM, the TGI [54] was 2380 nM and the GI50 [55] was 744 nM. It also gave a TGI [55] of 1880 nM, a GI50 [56] of 1550 nM and a TGI [56] of 11100 nM. It also gave a GI50 [57] of 1350 nM, a TGI [57] of 26400 nM and a GI50 [58] of 930 nM. The TGI [58] was 2360 nM.
